These results are taken from patent US4460596A, “Thienyloxazolylacetic acid derivatives and process for preparing” (Tanabe Seiyaku Co., Ltd., priority 1981, dated 1984).

For one data set, the system named is blood platelets (PRP). Description: Platelet aggregation-inhibiting activity in vitro (collagen, rat platelet-rich plasma). As to conditions: final concentration 100 μg/ml, 37° C. It counts as cell-based, male SD rats. The method, then: (Platelet aggregation-inhibiting activity)
Blood was collected from the abdominal aorta of male SD rats (body weight: 250-300 g) which were anesthetized with ether. Nine volumes of said blood were mixed with one volume of an aqueous 3.8% (w/v) trisodium citrate solution, and the mixture was centrifuged at 500×g for 5 minutes to give platelet-rich plasma (hereinafter referred to as "PRP") as the supernatant solution. The bottom layer was further centrifuged at 1000×g for 10 minutes to give platelet-poor plasma (hereinafter referred to as "PPP") as the supernatant solution. PRP was diluted with PPP so that the blood platelet count was 8-10×10^5 /mm^3. Then, a mixture of 200 μl of said diluted PRP and 25 μl of a test compound solution (final concentration: 100 μg/ml) was introduced into a glass cell of SIENCO aggregometer (Sienco Inc., Morrison, Colo. Model DP-247-D). After the mixture was stirred at 1100 rpm at 37° C. for 2 minutes, 25 μl of a collagen solution (prepared by Holmsen's method described in Biochim. Biophys. Acta, Vol. 186, page 254(1969)) was added thereto, and the percentage inhibition of platelet aggregation was calculated in accordance with the following formula from the degree of the platelet aggregation which was estimated by Born's method (Nature, 194, page 927([…])). [formula]

Data set [1] deals with serum cholesterol and serum triglyceride. Kind of data set: Hypolipidemic activity in rats (serum cholesterol and triglyceride, one-week diet). As to conditions: male SD rats, 50 mg % in diet. The format is in vivo. The method, then: (§1) A test compound (50 mg %) was added to a commercial diet, and male SD rats (body weight: 120-140 g, a group of 5 rats) were fed with the diet ad libitum for one week. After the experimental period, blood was collected from the tail vein of the rats under ether anesthesia. Serum cholesterol and serum triglyceride were measured according to the methods of Zak (Amer. J. Clin. Pathol., Vol. 24, page 1307(1954)) and Van Handel-Zilversmit (J. Lab. & Clin. Med., Vol. 55, page 152(1957)), respectively. Then, the increase (%) in liver weight and the decrease (%) in serum cholesterol or triglyceride were calculated according to the following formulae: [formula]

A further data set has as its system platelet aggregation. Kind of data set: Platelet aggregation-inhibiting activity after oral administration (ex vivo). As to conditions: 100 mg/kg, one hour after administration, male SD rats, collagen. It counts as in vivo.
The nature of data set [2]: Increase in liver weight in rats (one-week diet). As to conditions: male SD rats, 50 mg % in diet. It counts as in vivo. On the procedure:
as §1

With `CCCCCOC(=O)Cc1nc(-c2ccccc2)oc1-c1ccsc1` [n-pentyl 2-[2-phenyl-5-(3-thienyl)-4-oxazolyl]acetate], the inhibition at 100 µg/mL in the data set with blood platelets (PRP) was at least 10%. Also, in data set [1], the “Decrease (%) in serum cholesterol” value stood at 20% and the “Decrease (%) in serum triglyceride” value is given as 30%.
In the data set with blood platelets (PRP), `O=C(O)Cc1nc(-c2ccc(F)cc2)oc1-c1ccsc1` [2-[2-(4-fluorophenyl)-5-(3-thienyl)-4-oxazolyl]acetic acid] returned an inhibition at 100 µg/mL of at least 10%. In addition, the “Percentage inhibition of platelet aggregation” value in the data set on platelet aggregation is on record as 93 ± 6%. Besides, in data set [1], the “Decrease (%) in serum cholesterol” value worked out at 23% and the “Decrease (%) in serum triglyceride” value stood at 39%.
On to `CCOC(=O)Cc1nc(-c2ccc(F)cc2)oc1-c1cccs1` [ethyl 2-[2-(4-fluorophenyl)-5-(2-thienyl)-4-oxazolyl]acetate], for which the inhibition at 100 µg/mL with blood platelets (PRP) is at least 10%. In addition, in data set [1], the “Decrease (%) in serum cholesterol” value is listed as 17% and the “Decrease (%) in serum triglyceride” value stood at 43%.
`CCOC(=O)Cc1nc(-c2ccc(F)cc2)oc1-c1ccsc1` [ethyl 2-[2-(4-fluorophenyl)-5-(3-thienyl)-4-oxazolyl]acetate]: the inhibition at 100 µg/mL in the data set with blood platelets (PRP) was at least 10%. In addition, in data set [1], the “Decrease (%) in serum cholesterol” value is given as 19% and the “Decrease (%) in serum triglyceride” value is reported as 31%.
`CCOC(=O)C(C)(C)Oc1ccc(Cl)cc1` [Clofibrate, 2-(4-chlorophenoxy)-2-methylpropanoic acid ethyl ester, reference compound] registered an inhibition at 100 µg/mL in the data set with blood platelets (PRP) below 10%. Moreover, the “increase (%) in liver weight” value in data set [2] turned out to be 12%. For the same molecule, in data set [1], the “Decrease (%) in serum cholesterol” value turned out to be 15% and the “Decrease (%) in serum triglyceride” value is 16%.
In turn, `O=C(O)Cc1nc(-c2ccc(Cl)cc2)oc1-c1ccsc1` [2-[2-(4-chlorophenyl)-5-(3-thienyl)-4-oxazolyl]acetic acid] displayed an inhibition at 100 µg/mL in the data set with blood platelets (PRP) of at least 10%. For the same molecule, in data set [1], the “Decrease (%) in serum cholesterol” value is listed as 18% and the “Decrease (%) in serum triglyceride” value is reported as 49%.
`CCCCCOC(=O)Cc1nc(-c2ccc(Cl)cc2)oc1-c1ccsc1` [n-pentyl 2-[2-(4-chlorophenyl)-5-(3-thienyl)-4-oxazolyl]acetate]: in data set [1], the “Decrease (%) in serum cholesterol” value was 19% and the “Decrease (%) in serum triglyceride” value was determined as 45%.
For `O=C(O)Cc1nc(-c2ccc(F)cc2)oc1-c1cccs1` [2-[2-(4-fluorophenyl)-5-(2-thienyl)-4-oxazolyl]acetic acid], the inhibition at 100 µg/mL in the data set with blood platelets (PRP) was at least 10%. In data set [1], the “Decrease (%) in serum cholesterol” value was 17% and the “Decrease (%) in serum triglyceride” value came out at 27%.

For orientation: inhibition means the share of the control response that was lost under treatment. A high value points to strong suppression.
